What was measured:
Type in all cases: in vivo
Stellaria media = assay: Pre-emergence herbicidal action, STEME; settings: dosage 320 g/ha; for herbicidal activity STEME: scored visually after 3 weeks vs untreated controls (100% = plants have died)
Summary of the method: (§1)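 Pre-emergence, sandy loam soil; WP/EC formulation applied to covering soil surface, 600–800 l/ha water + 0.2% wetter; greenhouse, 3 wk; visual % damage vs untreated (0–100%).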

Polygonum convolvulus [1] = assay: Post-emergence herbicidal action, POLCO
Summary of the method: (§2)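 Foliar application at the one-leaf stage of greenhouse-grown plants in sandy loam; compound applied as WP or EC in 600–800 l/ha water containing 0.2% wetting agent. Scores are visual percentages (0% like control, 100% plants died) taken after roughly 3 weeks.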

Amaranthus retroflexus = assay: Post-emergence herbicidal action, AMARE; parameters: key: % herbicidal action vs untreated; 100 = plants died, 0 = like control
Summary of the method: as §2

Matricaria inodora = assay: Pre-emergence herbicidal action, MATIN; parameters: key to Herbicidal action against MATIN: % activity: 100 = plants have died, 0 = like control plants; settings: for herbicidal activity MATIN: scored visually after 3 weeks vs untreated controls (100% = plants have died)
Summary of the method: as §1

Viola tricolor = assay: Pre-emergence herbicidal action, VIOTR; settings: dosage 320 g/ha; for herbicidal activity VIOTR: scored visually after 3 weeks vs untreated controls (100% = plants have died)
Summary of the method: as §1

Polygonum convolvulus [2] = assay: Pre-emergence herbicidal action, POLCO; settings: for herbicidal activity POLCO: dosage 320 g/ha, scored visually after 3 weeks vs untreated controls (100% = plants have died)
Summary of the method: as §1

[3] = comparative experiment, post-emergence, 5 g of a.i./ha
[4] = comparative experiment, 20 g of a.i./ha

| SMILES | herbicidal activity STEME (Stellaria media) [%] | herbicidal action AMARE (Amaranthus retroflexus; post-emergence, dosage 80 g/ha) [%] | herbicidal activity MATIN (Matricaria inodora; dosage 320 g/ha) [%] | herbicidal activity VIOTR (Viola tricolor) [%] | herbicidal activity POLCO (Polygonum convolvulus [2]) [%] | herbicidal action POLCO (Polygonum convolvulus [1]; Dosage 80 g/ha) | herbicidal action AMARE (Amaranthus retroflexus; Dosage 80 g/ha) | other results |
| --- | --- | --- | --- | --- | --- | --- | --- | --- |
| Cn1nnnc1NC(=O)c1ccc(C(F)(F)F)c(CS(C)(=O)=O)c1Cl [Example 1-298] | 100 | 100 | 100 | 100 | – | – | – | Herbicidal action against POLCO (Polygonum convolvulus [1]; [3]): 60; herbicidal action POLCO (Polygonum convolvulus [1]; post-emergence, dosage 80 g/ha): 90%; Herbicidal action against AMARE (Amaranthus retroflexus; [3]): 100 |
| CCSCc1c(C(F)(F)F)ccc(C(=O)Nc2nnnn2CC)c1Br [Example 2-383] | 100 | 100 | 100 | 100 | 90 | – | – | herbicidal action POLCO (Polygonum convolvulus [1]; post-emergence, dosage 80 g/ha): 90% |
| COc1c(C(=O)Nc2nnnn2C)ccc(C(F)(F)F)c1CSC [Example 1-134] | – | – | 100 | 100 | 80 | 90 | 100 | Herbicidal action against POLCO (Polygonum convolvulus [2]; [4]): 30; Herbicidal action against POLCO (Polygonum convolvulus [1]; post-emergence, dosage 80 g/ha): 80; Herbicidal action against AMARE (Amaranthus retroflexus; post-emergence, dosage 80 g/ha): 100 |
| CCCn1nnnc1NC(=O)c1ccc(C(F)(F)F)c(CSCC)c1Cl [Example 3-299] | 90 | – | 100 | 100 | 90 | 80 | 90 | – |
| CSCc1c(C(F)(F)F)ccc(C(=O)Nc2nnnn2C)c1Cl [Example 1-296] | 100 | 100 | 100 | 100 | – | – | – | Herbicidal action against AMARE (Amaranthus retroflexus; [3]): 60 |
| CCCn1nnnc1NC(=O)c1ccc(C(F)(F)F)c(CS(=O)(=O)CC)c1C [Example 3-88] | 80 | – | 100 | 100 | – | 90 | 80 | – |
| CCn1nnnc1NC(=O)c1ccc(C(F)(F)F)c(CS(C)(=O)=O)c1SC [Example 2-163] | 90 | – | 100 | 100 | 100 | 90 | 100 | – |
| CCCn1nnnc1NC(=O)c1ccc(C(F)(F)F)c(CSC)c1Cl [Example 3-296] | 100 | – | 100 | 100 | 90 | – | 100 | – |
| CCCn1nnnc1NC(=O)c1ccc(C(F)F)c(C[S+]([O-])CC)c1Cl (centres unmarked) [Example 3-324] | 100 | – | 100 | 100 | 100 | 100 | – | – |
| Cn1nnnc1NC(=O)c1ccc(C(F)(F)F)c(C[S+](C)[O-])c1F (centres unmarked) [Example 1-243] | 90 | – | 100 | 100 | – | – | 90 | – |
| CCn1nnnc1NC(=O)c1ccc(C(F)(F)F)c(C[S+](C)[O-])c1Br (centres unmarked) [Example 2-381] | 90 | 90 | 100 | 100 | – | – | – | herbicidal action POLCO (Polygonum convolvulus [1]; post-emergence, dosage 80 g/ha): 90% |
| Cn1nnnc1NC(=O)c1ccc(Cl)c(CS(C)(=O)=O)c1Cl [Example 1-561] | 90 | – | 90 | 100 | 100 | – | 100 | – |
| CCSCc1c(C(F)(F)F)ccc(C(=O)Nc2nnnn2C)c1C [Example 1-86] | – | 80 | 100 | 100 | 100 | – | – | herbicidal action POLCO (Polygonum convolvulus [1]; post-emergence, dosage 80 g/ha): 80% |
| CCn1nnnc1NC(=O)c1ccc(C(F)(F)F)c(CSC)c1Br [Example 2-380] | 80 | 80 | 100 | 100 | 90 | – | – | herbicidal action POLCO (Polygonum convolvulus [1]; post-emergence, dosage 80 g/ha): 90% |
| CSCc1c(C(F)(F)F)ccc(C(=O)Nc2nnnn2C)c1SC [Example 1-161] | 100 | – | 100 | 100 | – | – | 100 | – |
| CSCc1c(C(F)(F)F)ccc(C(=O)Nc2nnnn2C)c1Br [Example 1-380] | 90 | 80 | 100 | 100 | – | – | – | herbicidal action POLCO (Polygonum convolvulus [1]; post-emergence, dosage 80 g/ha): 90% |

| SMILES | herbicidal activity STEME (Stellaria media) [%] | herbicidal action AMARE (Amaranthus retroflexus; post-emergence, dosage 80 g/ha) [%] | herbicidal activity MATIN (Matricaria inodora; dosage 320 g/ha) [%] | herbicidal activity VIOTR (Viola tricolor) [%] | herbicidal activity POLCO (Polygonum convolvulus [2]) [%] | herbicidal action POLCO (Polygonum convolvulus [1]; Dosage 80 g/ha) | herbicidal action AMARE (Amaranthus retroflexus; Dosage 80 g/ha) | other results |
| --- | --- | --- | --- | --- | --- | --- | --- | --- |
| CCCn1nnnc1NC(=O)c1ccc(C(F)(F)F)c(CS(C)(=O)=O)c1OC [Example 3-136] | 100 | – | 100 | 100 | 80 | 80 | 100 | – |
| CCCn1nnnc1NC(=O)c1ccc(C(F)(F)F)c(CSCC)c1Br [Example 3-383] | 100 | – | 100 | 100 | 90 | 90 | 90 | – |
| Cc1c(C(=O)Nc2nnnn2C)ccc(C(F)F)c1CS(C)(=O)=O [Example 1-109] | – | – | 90 | 100 | 90 | – | 100 | Herbicidal action against AMARE (Amaranthus retroflexus; [3]): 100 |
| CCn1nnnc1NC(=O)c1ccc(C(F)(F)F)c(CS(C)(=O)=O)c1Br [Example 2-382] | 90 | – | 100 | 100 | 90 | 80 | 90 | – |
| CCn1nnnc1NC(=O)c1ccc(C)c(CSC)c1Cl [Example 2-287] | 80 | – | 100 | 90 | – | 80 | 90 | – |
| C=CCSCc1c(C(F)(F)F)ccc(C(=O)Nc2nnnn2C)c1Cl [Example 1-308] | 100 | 100 | 100 | 100 | 100 | – | – | herbicidal action POLCO (Polygonum convolvulus [1]; post-emergence, dosage 80 g/ha): 90% |
| CCS(=O)(=O)Cc1c(C(F)(F)F)ccc(C(=O)Nc2nnnn2C)c1Cl [Example 1-301] | 90 | – | 100 | 100 | 100 | 100 | 80 | – |
| CSCc1c(C(F)(F)F)ccc(C(=O)Nc2nnnn2C)c1F [Example 1-242] | 90 | – | 100 | 100 | 80 | – | 100 | – |
| CCCn1nnnc1NC(=O)c1ccc(C(F)(F)F)c(C[S+](C)[O-])c1Cl (centres unmarked) [Example 3-297] | 100 | 100 | 100 | 100 | – | – | – | herbicidal action POLCO (Polygonum convolvulus [1]; post-emergence, dosage 80 g/ha): 80% |
| Cc1ccc(C(=O)Nc2nnnn2C)c(Cl)c1CS(C)(=O)=O [Example 1-289] | 90 | – | 100 | 90 | 80 | – | 100 | – |
| Cn1nnnc1NC(=O)c1ccc(C(F)(F)F)c(C[S+](C)[O-])c1Cl (racemic) [Example 1-297] | 90 | 90 | 100 | 100 | – | – | – | herbicidal action POLCO (Polygonum convolvulus [1]; post-emergence, dosage 80 g/ha): 80%; Herbicidal action against MATIN (Matricaria inodora; [4]): 100 |
| CCCn1nnnc1NC(=O)c1ccc(C(F)(F)F)c(CSC)c1Br [Example 3-380] | – | – | 100 | 100 | 80 | 90 | – | – |
| Cn1nnnc1NC(=O)c1ccc(C(F)(F)F)c(CS(C)(=O)=O)c1F [Example 1-244] | 90 | – | 100 | 100 | – | – | 90 | – |
| CCn1nnnc1NC(=O)c1ccc(S(C)(=O)=O)c(CS(C)(=O)=O)c1C [Example 2-39] | – | – | – | – | – | – | 100 | herbicidal action STEME (Stellaria media): 100%; herbicidal action MATIN (Matricaria inodora; dosage 320 g/ha): 100%; herbicidal action VIOTR (Viola tricolor): 100% |
| Cc1c(C(=O)Nc2nnnn2C)ccc(C(F)(F)F)c1C[S+](C)[O-] (centres unmarked) [Example 1-84] | 100 | 90 | 100 | 100 | 90 | – | – | – |
| CCn1nnnc1NC(=O)c1ccc(C(F)(F)F)c(CS(C)(=O)=O)c1OC [Example 2-136] | 100 | – | 100 | 100 | 100 | – | 100 | – |

— patent US12492173B2, “Herbicidal substituted N-tetrazolyl aryl carboxamides” (Bayer Aktiengesellschaft, priority 2019, dated 2025)
